The text below walks through data of patent US20210060550A1, “DEVICES AND METHODS FOR DETECTION OF MICROORGANISMS” (MICROBIOSENSOR LIMITED, priority 2017, published 2021).

One experiment deals with P. aeruginosa. As to the kind of experiment: Test A: antibiotic sensitivity in contaminated urine, tetrazolium violet colour change. Format: cell-based. The note with it: urine with 10^5 cfu/mL P. aeruginosa, 37° C. 10 hours; μg/ml: nitrofurantoin 64, pivmecillinam 4, trimethoprim 1, cephalexin 16, ciprofloxacin 0.25.
For a further experiment, the system named is K. pneumoniae. As to the kind of experiment: Test D: antibiotic sensitivity in contaminated urine, tetrazolium violet colour change. Format: cell-based. The note with it: urine with 10^5 cfu/mL K. pneumoniae, 37° C. 10 hours; μg/ml: nitrofurantoin 64, pivmecillinam 4, trimethoprim 8, cephalexin 32, ciprofloxacin 0.25. As to the method:
Each test tube contained 0.04 mg tetrazolium violet, 6.6 mg Wilkins Chalgren media. The test chambers also contained an amount of antibiotic compound as indicated in the tables below (as concentration in final volume of urine).
For each example, 0.2 mL of a urine sample was contaminated with 10^5 cfu/mL of the specified bacteria was poured into each test tube. The resultant composition was incubated at 37° C. for 10 hours. FIGS. 3A to 3F show the test tubes after the incubation period.

Regarding `O=C(O)c1cn(C2CC2)c2cc(N3CCNCC3)c(F)cc2c1=O` [ciprofloxacin], the “infection treatable or resistant (FIG. 4A)” value with P. aeruginosa was “can be treated”. The “infection treatable or resistant (FIG. 4D)” value in the experiment on K. pneumoniae is recorded as “can be treated”.
Consider `COc1cc(Cc2cnc(N)nc2N)cc(OC)c1OC` [trimethoprim], for which the “infection treatable or resistant (FIG. 4D)” value in the experiment with K. pneumoniae was “can be treated”.
